Experimental findings from patent US8530491B2, “Antimalarial compounds with flexible side-chains” (Medicines for Malaria Venture (MMV), priority 2007, dated 2013) are described below.

In brackets after ≈: the same amount, converted by molar mass.

Series [1] concerns the target T1, Pf DHFR C59R + S108N + I164L (Plasmodium falciparum, UniProt A7UD81, C59R/I164L/S108N).
T1 construct: made in house; host or cells: E. coli BL21(DE3)pLysS
As to the kind of experiment: biochemical.

The subject of another series is E. coli. Nature of the series: Antibacterial activity, minimal inhibitory concentration on agar plates. Type of series: cell-based. To be noted: Escherichia coli; complete inhibition of growth on agar plates.
For series [2], the system named is P. falciparum TM4/8.2 (wild type). Nature of the series: In vitro anti-plasmodial activity, [3H]-hypoxanthine incorporation. It counts as cell-based, Plasmodium falciparum. Particulars: Plasmodium falciparum, read-out: IC50-P. falciparum TM4/8.2 (WT), TM4/8.2.
The next series has as its target T2, Pf DHFR WT (Plasmodium falciparum, UniProt A7UD81).
T2 construct: made in house; host or cells: E. coli BL21(DE3)pLysS
Nature of the series: Pf DHFR enzyme inhibition (Ki), wild type. Type of series: biochemical.

The test system of series [3] is P. chabaudi AS. Nature of the series: Standard 4-day Peters' test against P. chabaudi AS in mice. Type of series: in vivo, Plasmodium chabaudi. Particulars: for ED50 / ED90: Plasmodium chabaudi, 96 h, oral, 4-day Peters' test; for ED50: 50% reduction in parasitaemia; for ED90: 90% reduction in parasitaemia. As to the method: (§1) Briefly, 20 gr CD1 male mice (Charles Rivers, UK) were kept in specific pathogen-free conditions and fed ad libitum. For oral administration, compounds were dissolved in standard suspending formula (SSV) [0.5% sodium carboxymethylcellulose, 0.5% benzyl alcohol, 0.4% Tween 80, 0.9% NaCl (all Sigma)] and for intraperitoneal or subcutaneous administration compounds were dissolved in 0.5% w/v hydroxypropylmethylcellulose, 0.4% v/v Tween 80, 0.5% V/v benzyl alcohol in de-ionised water]. Mice were infected intravenously with 4×10^6 infected red cells and treated orally (p.o.) with 0.2 ml of a solution of the test compounds two hours (day 0) and on days 1, 2 and 3 post-infection. Parasitaemia was determined by microscopic examination of Giemsa stained blood films taken on day 4. Microscopic counts of blood films from each mouse were processed using GraphPad Prism 4 (GraphPad Software, Inc., CA, USA) and expressed as percentages of inhibition from the arithmetic mean parasitaemias of each group in relation to the untreated group. Compounds were tested in an initial screening at 30 mg/kg/day against P. chabaudi AS (non-resistant) over the period described and percentages of inhibition calculated in relation to the untreated controls. Compounds giving 80% inhibition or above were then tested in the same model under a range of doses over the period described in order to obtain dose response curves and calculate their ED50 and ED90 values. […] From the ED90 values is clear that a number of compounds have exquisite activity in this model and are also tested in P. chabaudi ASP and P. berghei ANKA.

Series [4] addresses T3, Pf DHFR N51I + C59R + S108N (Plasmodium falciparum, UniProt A7UD81, C59R/N51I/S108N).
T3 construct: made in house; host or cells: E. coli BL21(DE3)pLysS
As to the kind of experiment: biochemical.

The next series concerns S. aureus. Nature of the series: Antibacterial activity, minimal inhibitory concentration on agar plates. Type of series: cell-based. To be noted: Staphylococcus aureus; complete inhibition of growth on agar plates.
The target in series [5] is T4, Pf DHFR N51I + C59R + S108N + I164L (Plasmodium falciparum, UniProt A7UD81, C59R/I164L/N51I/S108N).
T4 construct: made in house; host or cells: E. coli BL21(DE3)pLysS
Nature of the series: biochemical.

The target in a further series is T5, Pf DHFR C59R + S108N (Plasmodium falciparum, UniProt A7UD81, C59R/S108N).
T5 construct: made in house; host or cells: E. coli BL21(DE3)pLysS
As to the kind of experiment: biochemical.

Series [6] in a line: Oral bioavailability and pharmacokinetics in male Sprague Dawley rats. It counts as in vivo. To be noted: for Oral BA: i.v. and oral dosing; for Vd: intravenous; for clearance: read-out: i.v. CL(plasma). As for the experimental part: Rats had free access to water throughout the pre- and post-dose sampling period, and access to food was re-instated 4 hours post-dosing. Test compounds were administered intravenously as a 5 minute constant rate infusion (1.0 mL per rat) and orally by gavage (1.0 mL per rat). The IV formulations were typically buffered aqueous solutions containing a co-solvent if required for solubilization. The oral formulations were prepared as suspensions in hydroxypropylmethyl cellulose or carboxymethyl cellulose, each with the addition of Tween 80 and benzyl alcohol. Samples of arterial blood and total urine were collected up to 24 hours post-dose. Arterial blood was collected directly into borosilicate vials (at 4° C.) containing heparin, a protease inhibitor cocktail, potassium fluoride, and EDTA to minimise the potential for ex vivo degradation of the test compound in blood/plasma samples. Once collected, blood samples were centrifuged, supernatant plasma was removed and stored at −20° C., and plasma concentrations of test compound were determined by LCMS.

The nature of series [7]: Cytotoxicity in mammalian cells. Particulars: African green monkey, Vero cells (African green monkey kidney epithelial cells). It counts as cell-based.
For series [8] the following is noted: rat, in vivo.
The next series relates to P. chabaudi ASP. Nature of the series: Standard 4-day Peters' test against P. chabaudi ASP (pyrimethamine-resistant) in mice. Type of series: in vivo, Plasmodium chabaudi. Particulars: for ED50: Plasmodium chabaudi, po, read-out: ED50 P. chabaudi ASP; for ED90 P. chabaudi ASP: oral, pyrimethamine-resistant strain. As for the experimental part: as §1
Series [9] relates to P. chabaudi AS. Nature of the series: Standard 4-day Peters' test against P. chabaudi AS in mice. Type of series: in vivo, Plasmodium chabaudi. Particulars: s.c. administration, mice (Table 1).
A further series concerns P. berghei ANKA. As to the kind of experiment: Standard 4-day Peters' test against P. berghei ANKA in mice. Particulars: oral, lethal non-resistant strain; for ED50: Plasmodium berghei. It counts as in vivo, Plasmodium berghei. As to the method: as §1
The test system of series [10] is P. falciparum Resistant mutant. As to the kind of experiment: Anti-malarial activity against P. falciparum in vitro, resistant mutant (Table 1). It counts as cell-based, Plasmodium falciparum. To be noted: Plasmodium falciparum, read-out: IC50 against P. falciparum in vitro, Resistant mutant.
Another series deals with P. falciparum Wild Type. Nature of the series: Anti-malarial activity against P. falciparum in vitro, wild type (Table 1). Type of series: cell-based, Plasmodium falciparum. Particulars: Plasmodium falciparum.

T3 sequence (A7UD81 whole entry N51I/C59R/S108N): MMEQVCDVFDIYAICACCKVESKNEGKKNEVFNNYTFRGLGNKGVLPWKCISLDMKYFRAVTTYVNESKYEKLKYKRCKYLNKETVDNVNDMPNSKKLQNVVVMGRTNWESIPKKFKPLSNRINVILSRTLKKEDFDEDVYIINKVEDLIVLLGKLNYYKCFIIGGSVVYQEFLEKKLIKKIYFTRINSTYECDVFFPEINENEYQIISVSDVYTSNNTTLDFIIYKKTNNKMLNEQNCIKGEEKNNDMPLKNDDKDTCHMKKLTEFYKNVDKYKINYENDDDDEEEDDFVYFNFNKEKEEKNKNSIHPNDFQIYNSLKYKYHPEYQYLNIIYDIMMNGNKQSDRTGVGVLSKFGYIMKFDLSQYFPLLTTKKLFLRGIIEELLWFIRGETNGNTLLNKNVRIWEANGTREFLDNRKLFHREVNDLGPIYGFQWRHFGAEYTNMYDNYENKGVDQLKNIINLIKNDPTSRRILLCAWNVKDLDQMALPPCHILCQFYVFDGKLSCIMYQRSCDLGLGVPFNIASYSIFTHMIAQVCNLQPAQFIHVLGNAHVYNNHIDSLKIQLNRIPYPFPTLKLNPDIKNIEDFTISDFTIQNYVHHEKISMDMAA
T5 sequence (A7UD81 whole entry C59R/S108N): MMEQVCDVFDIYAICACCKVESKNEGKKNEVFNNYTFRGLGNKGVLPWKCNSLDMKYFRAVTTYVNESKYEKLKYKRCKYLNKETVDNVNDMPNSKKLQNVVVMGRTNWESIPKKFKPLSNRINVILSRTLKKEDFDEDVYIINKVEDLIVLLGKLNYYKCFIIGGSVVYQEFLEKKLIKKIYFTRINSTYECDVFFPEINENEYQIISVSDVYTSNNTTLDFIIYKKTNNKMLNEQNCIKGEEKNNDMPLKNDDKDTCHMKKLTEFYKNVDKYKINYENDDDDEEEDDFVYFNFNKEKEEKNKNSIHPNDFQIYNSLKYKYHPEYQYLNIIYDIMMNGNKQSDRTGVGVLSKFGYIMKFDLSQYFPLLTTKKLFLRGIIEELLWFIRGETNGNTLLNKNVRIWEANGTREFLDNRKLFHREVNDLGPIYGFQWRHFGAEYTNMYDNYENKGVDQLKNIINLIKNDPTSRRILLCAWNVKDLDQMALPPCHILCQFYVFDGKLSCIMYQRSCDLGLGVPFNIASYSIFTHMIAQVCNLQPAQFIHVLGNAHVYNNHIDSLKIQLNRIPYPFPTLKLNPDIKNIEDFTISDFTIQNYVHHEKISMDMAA
T1 sequence (A7UD81 whole entry C59R/S108N/I164L): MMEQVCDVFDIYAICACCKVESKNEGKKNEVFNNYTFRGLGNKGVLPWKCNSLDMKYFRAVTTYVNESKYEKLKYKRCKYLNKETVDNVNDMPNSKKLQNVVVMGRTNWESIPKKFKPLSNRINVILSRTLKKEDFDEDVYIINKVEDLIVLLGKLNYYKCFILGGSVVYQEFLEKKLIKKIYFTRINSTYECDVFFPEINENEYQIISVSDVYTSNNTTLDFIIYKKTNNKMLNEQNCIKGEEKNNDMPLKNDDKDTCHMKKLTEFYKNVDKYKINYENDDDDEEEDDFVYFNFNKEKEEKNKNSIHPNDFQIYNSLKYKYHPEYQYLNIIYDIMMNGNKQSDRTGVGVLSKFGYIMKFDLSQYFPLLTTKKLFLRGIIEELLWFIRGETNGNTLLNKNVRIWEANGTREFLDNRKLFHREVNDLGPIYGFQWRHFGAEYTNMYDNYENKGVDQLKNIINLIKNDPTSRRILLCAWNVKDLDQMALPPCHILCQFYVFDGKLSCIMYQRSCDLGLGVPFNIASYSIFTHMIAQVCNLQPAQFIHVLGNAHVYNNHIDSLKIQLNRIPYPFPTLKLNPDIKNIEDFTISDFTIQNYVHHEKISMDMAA
T2 sequence (A7UD81 1-608): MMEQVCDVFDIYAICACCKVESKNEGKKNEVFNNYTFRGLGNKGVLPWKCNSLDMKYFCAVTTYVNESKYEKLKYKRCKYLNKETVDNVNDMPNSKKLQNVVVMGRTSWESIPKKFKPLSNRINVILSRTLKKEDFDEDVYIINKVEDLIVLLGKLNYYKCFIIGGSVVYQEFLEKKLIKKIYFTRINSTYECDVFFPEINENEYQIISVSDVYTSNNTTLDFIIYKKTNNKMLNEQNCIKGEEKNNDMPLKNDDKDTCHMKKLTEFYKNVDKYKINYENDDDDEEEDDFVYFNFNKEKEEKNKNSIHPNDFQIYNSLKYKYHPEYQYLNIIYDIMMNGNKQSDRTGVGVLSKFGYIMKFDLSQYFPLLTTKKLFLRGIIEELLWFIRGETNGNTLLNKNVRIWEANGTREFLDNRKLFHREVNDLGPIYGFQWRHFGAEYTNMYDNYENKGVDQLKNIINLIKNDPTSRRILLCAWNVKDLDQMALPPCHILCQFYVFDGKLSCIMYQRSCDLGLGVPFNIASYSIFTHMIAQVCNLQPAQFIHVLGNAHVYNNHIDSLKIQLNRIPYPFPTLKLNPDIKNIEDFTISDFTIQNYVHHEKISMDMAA
T4 sequence (A7UD81 whole entry N51I/C59R/S108N/I164L): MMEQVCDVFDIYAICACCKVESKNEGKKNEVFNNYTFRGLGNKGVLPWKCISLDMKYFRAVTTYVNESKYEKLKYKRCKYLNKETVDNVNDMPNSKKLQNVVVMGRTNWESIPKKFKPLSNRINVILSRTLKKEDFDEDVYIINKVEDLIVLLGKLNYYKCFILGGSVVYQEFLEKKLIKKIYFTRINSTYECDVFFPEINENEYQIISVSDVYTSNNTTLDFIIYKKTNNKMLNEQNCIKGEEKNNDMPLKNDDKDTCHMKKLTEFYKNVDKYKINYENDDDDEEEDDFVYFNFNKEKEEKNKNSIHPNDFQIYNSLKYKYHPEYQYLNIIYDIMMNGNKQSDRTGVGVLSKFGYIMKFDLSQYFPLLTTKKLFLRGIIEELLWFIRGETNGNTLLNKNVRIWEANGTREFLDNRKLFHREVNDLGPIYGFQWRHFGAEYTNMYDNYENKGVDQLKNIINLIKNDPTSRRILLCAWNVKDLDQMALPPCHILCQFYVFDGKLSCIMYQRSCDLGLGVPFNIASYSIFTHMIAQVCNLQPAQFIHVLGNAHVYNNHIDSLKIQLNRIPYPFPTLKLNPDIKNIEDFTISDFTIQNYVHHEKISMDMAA

Regarding `CCc1nc(N)nc(N)c1OCCCOc1ccnc2ccc(Cl)cc12` [Compound P149, 2,4-diamino-6-ethyl-5-(3-(6-chloro-quinolin-4-yloxy)propoxy)pyrimidine], the Ki (in general, the dissociation constant of the complex between target and ligand, obtained from inhibition or displacement) was found to be 3.66 ± 0.48 nM in series [1]; 1.05 ± 0.18 nM at Pf DHFR WT; 3.4 ± 0.15 nM in series [4]; 4.23 ± 1.06 nM in series [5]; 2.37 ± 0.16 nM at Pf DHFR C59R + S108N. Besides, the minimum inhibitory concentration (MIC) (commonly the smallest concentration in the dilution series that meets the test's criterion for growth inhibition) in the series on E. coli lay in the range of 10 to 50 µM (≈ 3.74 to 18.7 µg/mL); against S. aureus, 1 to 10 µM (≈ 0.374 to 3.74 µg/mL). Also, in series [2], the IC50 came to 3.2 ± 0.7 nM. It took a dose of 0.01 mg/kg to reach the 50% effect level with P. chabaudi AS [3] (ED50). Moreover, the ED90 in the series with P. chabaudi AS [3] is 0.02 mg/kg. In addition, the “Oral BA” value in series [6] is on record as 10 % of dose. In addition, in series [6] (rat, plasma), the Vd came out at 51.2 L/kg. The clearance in series [6] (rat, plasma, iv, i.v. dosing) worked out at 66.3 mL/min/kg. The half-life in series [6] (rat, plasma, iv, i.v. dosing, read-out: i.v. t1/2 (converted)) is 24.3 h.
`CCc1nc(N)nc(N)c1OCCCOc1ccccc1OCCCC(=O)O` [Compound P135, 2,4-diamino-6-ethyl-5-(3-(2-(3-carboxypropoxy)phenoxy)propoxy)pyrimidine]: the inhibition constant Ki was determined as 2.54 ± 0.04 nM in [1]; 0.72 ± 0.03 nM on Pf DHFR WT; 1.2 ± 0.05 nM in [4]; 3.47 ± 0.09 nM in series [5]; 0.98 ± 0.003 nM at Pf DHFR C59R + S108N. The MIC in the series with E. coli and in the series with S. aureus was above 50 µM each time. For the same compound, the IC50 in [2] was 1.6 ± 0.6 nM; in [7], above 10000 nM. In addition, in the series on P. chabaudi AS [3], the 50% effect level (ED50) was put at a dose of 2 mg/kg. In the series on P. chabaudi AS [3], this compound returned an ED90 of 5.2 mg/kg. Besides, the “Oral BA” value in [6] is 7.0 % of dose. This compound also displayed a Vd in series [6] (rat, plasma) of 1.6 L/kg. The clearance in [6] (rat, plasma, iv, i.v. dosing) was determined as 49.1 mL/min/kg.
For the compound `CCc1nc(N)nc(N)c1-c1ccc(Cl)cc1` [Pyrimethamine, pyrimethamine, reference compound], the minimal inhibitory concentration (MIC) against E. coli and with S. aureus was above 50 µM in each case. The IC50 in [2] was 58 ± 30 nM; in [10], above 100000 nM; with P. falciparum Wild Type, 79 nM. Moreover, in series [8], the “Oral BA in rats” value was around 100%. In addition, the ED50 – broadly, the midpoint of the dose-response relation – is 1.8 mg/kg with P. chabaudi ASP, 0.25 mg/kg with P. chabaudi AS [3] and 0.5 mg/kg with P. berghei ANKA. In the series with P. chabaudi ASP, the “ED90 P. chabaudi ASP” value is recorded as 13.5 mg/kg. The compound also displayed an ED90 in the series on P. chabaudi AS [3] of 0.88 mg/kg. Also, in the series on P. chabaudi AS [3] (oral administration, mice (Table 1)), the “ED90 P. chabaudi AS, oral” value turned out to be 0.88 mg/kg. Further, in the series on P. chabaudi AS [9], the “ED90 P. chabaudi AS, s.c.” value is recorded as 0.25 mg/kg. The “ED90 P. berghei ANKA” value in the series on P. berghei ANKA worked out at 3.2 mg/kg.
For the compound `CCc1nc(N)nc(N)c1OCCCOc1ccnc2ccccc12` [Compound P113, 2,4-diamino-6-ethyl-5-(3-(quinolin-4-yloxy)propoxy)pyrimidine], the Ki in series [1] is 3.06 ± 0.21 nM; on Pf DHFR WT, 1.21 ± 0.17 nM; in series [4], 1.82 ± 0.17 nM; in series [5], 4.33 ± 0.28 nM; on Pf DHFR C59R + S108N, 1.86 ± 0.11 nM. Moreover, the IC50 in series [2] is 4 ± 3 nM; in series [7] it was 119 nM. The ED50 in the series on P. chabaudi ASP is 0.003 mg/kg; in the series on P. chabaudi AS [3], 0.006 mg/kg; in the series with P. berghei ANKA, 0.01 mg/kg. For the same compound, in the series on P. chabaudi ASP, the “ED90 P. chabaudi ASP” value worked out at 0.01 mg/kg. The compound also showed an ED90 with P. chabaudi AS [3] of 0.01 mg/kg. The “ED90 P. berghei ANKA” value with P. berghei ANKA was determined as 0.03 mg/kg. Further, the “Oral BA” value in [6] was <2.0 % of dose.
